From PubChem BioAssay (NCI)
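Briefly, cells in 96-well plates were exposed to five compound concentrations for 48 h, and endpoints were estimated by linear interpolation. Here, GI50 denotes the concentration required for 50% inhibition of growth. The concentration for full growth arrest is given as TGI.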

system: SNB-19 CNS; test: NCI anticancer screen, dose series, 48 h

Row | SMILES | GI50 | TGI
1 | COc1ccc(CCN2COc3c([C@@H](C)CCC=C(C)C)ccc(C)c3C2)cc1OC | 12.1 µM | 42.8 µM
2 | COc1cc(C(=O)c2cc(C)c3[nH]c4ccc(C)cc4c3c2C)cc(OC)c1OC | < 0.01 µM | > 100 µM
3 | Cc1ccc2[nH]c(O)c(N=Nc3ccc(S(N)(=O)=O)cc3)c2c1 | > 19.1 µM | > 25 µM
4 | C=C1CCC(CC[C@@H]2CC[C@]3(OC2)O[C@@]2(O)CC[C@]3(C)OC2(C)C)C(C)(C)[C@H]1C/C=C1/C(=O)OC[C@@H]1O (stereo partly drawn) |  | 8.88 µM
5 | C[C@]12CC[C@@H]3c4cc(OCC(F)(F)F)c(O)cc4/C(=N/O)C[C@H]3[C@@H]1CC[C@@H]2O |  | > 63.1 µM
6 | Cn1c(=O)c(Cc2ccccc2F)cc2cnc(NC3CCOCC3)nc21 | > 25 µM | > 25 µM
7 | COc1cc(/C=C/c2ccc(OC)c(OC)c2)cc(OC)c1 |  | > 100 µM
8 | CC1(C)[C@@H](OC(N)=O)[C@H]2O[C@H]2[C@]2(C=O)[C@H]3CC[C@]4(C)[C@@H](c5ccc(=O)oc5)[C@@H](Cl)C[C@]4(O)C3=CC[C@@H]12 | 0.00796 µM | 0.0219 µM
9 | CCCCON(OC(=O)c1ccc2ccc3cccc4ccc1c2c34)C(C)=O | 34.3 µM | > 100 µM
10 | Cc1[nH]c2ccccc2c(=O)c1CC=C(Cl)Cl | 25.7 µM | > 100 µM
11 | Clc1ccc(C=Nc2ccc3c(c2)Cc2ccccc2-3)c(Cl)c1 |  | > 100 µM
12 | CN(C)CCN1C(=O)c2ccc3c4c(ccc(c24)C1=O)C(=O)N(CCN=C=S)C3=O | 0.0954 µM | 0.596 µM
13 | COc1ccc(/C=C/c2cc(OC)cc(=O)o2)cc1 |  | > 100 µM
14 | O=C(/C=C\c1ccc(NCc2ccc(C(=O)O)cc2)cc1)CCl | 15.3 µM | 29.1 µM
15 | COc1cccc(C#Cc2ccccc2C#CCCCCO)c1 | 18.5 µM | 35.5 µM
16 | CC1=C[C@H]2c3c(c(O)c(O)c4oc(-c5ccccc5)cc(=O)c34)[C@H](c3cc(O)c(O)c4oc(-c5ccccc5)cc(=O)c34)[C@H]2C(C)(C)C1 | 0.557 µM | 17 µM
17 | COc1cccc2c(=O)c3c(sc12)c(N1CCNCC1)nc1ccccc13 | 1.79 µM | 3.39 µM
18 | COc1c(CCl)cc(-c2cc(=O)c3ccccc3s2)cc1CCl |  | > 88.9 µM
19 | COc1cc2[nH]c(C(=O)c3cc(OC)c(OC)c(OC)c3)c(N)c2cc1C#CC1CC1 | 5.85 µM | > 100 µM
20 | CC(=O)N[C@H]1CSSC[C@@H](C(N)=O)NC(=O)[C@H](C(C)C)NC(=O)[C@H](C)NC(=O)[C@H](Cc2cnc[nH]2)NC1=O | > 100 µM | > 100 µM
21 | O=C1CC2c3ccccc3CCC2c2ccccc21 (stereo not drawn) |  | > 100 µM
22 | CN(CCC#N)c1ccc(/C=C(\C#N)c2ccc(Br)cc2)cc1 | > 100 µM | > 100 µM
23 | COc1cc(NC(C)CCCN)c2nccc(C)c2c1 (stereo not drawn) |  | > 100 µM
24 | CC(=O)C(=CN1CCN(C(=O)c2ccco2)C1=S)C(C)=O | 30.1 µM | 63.6 µM

system: TK-10 renal; test: NCI anticancer screen, dose series, 48 h

Row | SMILES | GI50 | TGI
25 | Nc1ccc(-c2nc3ccc(Cc4ccc5nc(-c6ccc(N)cc6)[nH]c5c4)cc3[nH]2)cc1 | 24.4 µM | 43.3 µM
26 | Cn1c2ccccc2c(=O)c2ccc(Cl)cc21 |  | > 10 µM
27 | CC(CO)(CO)NCCCCn1ccc2c1C(=O)c1c(c(O)c3ccccc3c1O)C2=O | 1.51 µM | 4.57 µM
28 | O=S(=O)(Nc1cc(Sc2cccc3cccnc23)c(O)c2ccccc12)c1ccccc1 | 5.08 µM | 18.3 µM
29 | CN(C)C(=O)[C@H](O)[C@H](Cc1ccccc1)NC(=O)c1cc2cc(Cl)ccc2[nH]1 | 24.3 µM | 67 µM
30 | CC(C)(C[C@H]1CN(S(=O)(=O)c2cccc(C(F)(F)F)c2)c2cc(-c3cc(F)cc(OC(F)F)c3)ccc2O1)C(=O)O | 9.07 µM | 27.6 µM
31 | O=C(O)C1C(Br)(c2ccccc2)C1(Br)c1ccccc1 (stereo not drawn) |  | > 100 µM
32 | C#Cc1c(I)n(C2OC(CO[Si](C)(C)C(C)(C)C)C3OC(C)(C)OC32)c(=O)[nH]c1=O (stereo not drawn) | 11.2 µM | 26.5 µM
33 | CCSc1nc(SCC)c2cn[nH]c2n1 | 58.3 µM | > 100 µM
34 | ClCC[N+]12CC[N+](CCCl)(CC1)C2 |  | > 100 µM
35 | COc1ccc(CCN2COc3c([C@@H](C)CCC=C(C)C)ccc(C)c3C2)cc1OC | 2.19 µM | 5.95 µM
36 | COc1cc(C(=O)c2cc(C)c3[nH]c4ccc(C)cc4c3c2C)cc(OC)c1OC | 3.37 µM | > 100 µM
37 | COc1cc(/C=C/c2cc(/C=C/c3ccc(O)c(OC)c3)n(C(=O)Nc3ccc(C)cc3C)n2)ccc1O | 0.529 µM | 2.16 µM
38 | Cc1ccc2[nH]c(O)c(N=Nc3ccc(S(N)(=O)=O)cc3)c2c1 | 10.1 µM | > 25 µM
39 | C=C1CCC(CC[C@@H]2CC[C@]3(OC2)O[C@@]2(O)CC[C@]3(C)OC2(C)C)C(C)(C)[C@H]1C/C=C1/C(=O)OC[C@@H]1O (stereo partly drawn) |  | 11.5 µM
40 | C[C@]12CC[C@@H]3c4cc(OCC(F)(F)F)c(O)cc4/C(=N/O)C[C@H]3[C@@H]1CC[C@@H]2O |  | > 100 µM
41 | Cn1c(=O)c(Cc2ccccc2F)cc2cnc(NC3CCOCC3)nc21 | > 25 µM | > 25 µM
42 | COc1cc(/C=C/c2ccc(OC)c(OC)c2)cc(OC)c1 |  | > 100 µM
43 | CC1(C)[C@@H](OC(N)=O)[C@H]2O[C@H]2[C@]2(C=O)[C@H]3CC[C@]4(C)[C@@H](c5ccc(=O)oc5)[C@@H](Cl)C[C@]4(O)C3=CC[C@@H]12 | 0.00551 µM | 0.0123 µM

Row | SMILES | GI50 | TGI
44 | CCCCON(OC(=O)c1ccc2ccc3cccc4ccc1c2c34)C(C)=O | 30.5 µM | 87.9 µM
45 | Cc1[nH]c2ccccc2c(=O)c1CC=C(Cl)Cl | 25.5 µM | 99.3 µM
46 | Clc1ccc(C=Nc2ccc3c(c2)Cc2ccccc2-3)c(Cl)c1 |  | > 100 µM
47 | CN(C)CCN1C(=O)c2ccc3c4c(ccc(c24)C1=O)C(=O)N(CCN=C=S)C3=O | 0.0218 µM | 0.109 µM
48 | COc1ccc(/C=C/c2cc(OC)cc(=O)o2)cc1 |  | > 100 µM
49 | O=C1CSC(c2ccc(Cl)cc2Cl)N1c1ccc(F)cc1 (stereo not drawn) | 14.4 µM | 27.7 µM
50 | COc1cccc(C#Cc2ccccc2C#CCCCCO)c1 | 13.1 µM | 29.6 µM
51 | CC1=C[C@H]2c3c(c(O)c(O)c4oc(-c5ccccc5)cc(=O)c34)[C@H](c3cc(O)c(O)c4oc(-c5ccccc5)cc(=O)c34)[C@H]2C(C)(C)C1 | 1.57 µM | 31 µM
52 | COc1cccc2c(=O)c3c(sc12)c(N1CCNCC1)nc1ccccc13 | 1.85 µM | 3.44 µM
53 | COc1c(CCl)cc(-c2cc(=O)c3ccccc3s2)cc1CCl |  | 99.7 µM
54 | COc1cc2[nH]c(C(=O)c3cc(OC)c(OC)c(OC)c3)c(N)c2cc1C#CC1CC1 | 40 µM | > 100 µM
55 | COc1ccc(/C=C/C(=O)C(CC2CCC2)C(=O)/C=C/c2ccc(OC)c(OC)c2)cc1OC | 2.59 µM | 4.88 µM
56 | CC(=O)N[C@H]1CSSC[C@@H](C(N)=O)NC(=O)[C@H](C(C)C)NC(=O)[C@H](C)NC(=O)[C@H](Cc2cnc[nH]2)NC1=O | > 100 µM | > 100 µM
57 | O=C1CC2c3ccccc3CCC2c2ccccc21 (stereo not drawn) |  | > 100 µM
58 | CN(CCC#N)c1ccc(/C=C(\C#N)c2ccc(Br)cc2)cc1 | > 100 µM | > 100 µM
59 | COc1cc(NC(C)CCCN)c2nccc(C)c2c1 (stereo not drawn) |  | 63.5 µM
60 | CCCCCCCCCCCCCCCCCCOc1ccccc1CC(=O)OCC[N+]1(C)CCCC1 | 1.52 µM | 3.08 µM
61 | CC(=O)C(=CN1CCN(C(=O)c2ccco2)C1=S)C(C)=O | 4.19 µM | 14.3 µM
